What was measured:
Test in all cases: relative viability (nuclei count vs DMSO), 5 days (fraction); higher = more cells survive
[1] = compound: O=c1ncccn1[C@@H]1O[C@H](CO)[C@@H](O)[C@H]1O [Zebularine] + CC(=O)c1c(C)c2cnc(Nc3ccc(N4CCNCC4)cn3)nc2n(C2CCCC2)c1=O [Palbociclib] (partner 0.5 µM)
Procedure, shortened: (§1)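 Lung cancer cell lines in 1536-well plates were dosed by pin tool the day after seeding, either with one drug alone or with a fixed anchor-drug dose plus five library-drug doses (not always all listed) in √10 steps. After 5 days, cells were fixed and their nuclei stained in one step (final 0.05% Triton X-100, 1% formaldehyde, 1 ug/ml Hoechst), then counted on 4× images. Relative viability is the nuclei count in treated wells divided by that in vehicle wells. Values are medians of duplicate plates.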

[2] = compound: O=c1ncccn1[C@@H]1O[C@H](CO)[C@@H](O)[C@H]1O [Zebularine] + CCNC(=O)c1noc(-c2cc(C(C)C)c(O)cc2O)c1-c1ccc(CN2CCOCC2)cc1 [Luminespib] (partner 0.01 µM)
Procedure, shortened: as §1

[3] = compound: CC(C)CCN1c2nc(Nc3cc(F)c(O)c(F)c3)ncc2N(C)C(=O)C1C [BI-D1870] + N=C(N)NC(=N)NCCc1ccccc1 [Phenformin] (partner 250 µM)
Procedure, shortened: as §1

[4] = compound: O=c1ncccn1[C@@H]1O[C@H](CO)[C@@H](O)[C@H]1O [Zebularine] + COc1cccc2cc(-c3nc([C@H]4CC[C@H](C(=O)O)CC4)n4ncnc(N)c34)[nH]c12 [OSI-027] (partner 0.5 µM)
Procedure, shortened: as §1

## UMC-11
[1]; first compound 1 µM
  relative viability: 0.329
[1]; first compound 3.162 µM
  relative viability: 0.315
[1]; first compound 10 µM
  relative viability: 0.312
[1]; first compound 31.62 µM
  relative viability: 0.344
[1]; first compound 100 µM
  relative viability: 0.308
[2]; first compound 1 µM
  relative viability: 1.06
[2]; first compound 3.162 µM
  relative viability: 0.996
[2]; first compound 10 µM
  relative viability: 0.686
[2]; first compound 31.62 µM
  relative viability: 0.62
[2]; first compound 100 µM
  relative viability: 0.316
[3]; first compound 0.04 µM
  relative viability: 0.332
[3]; first compound 0.1265 µM
  relative viability: 0.285
[3]; first compound 0.4 µM
  relative viability: 0.33
[3]; first compound 1.265 µM
  relative viability: 0.295
[3]; first compound 4 µM
  relative viability: 0.183
[4]; first compound 1 µM
  relative viability: 0.544
[4]; first compound 3.162 µM
  relative viability: 0.478
[4]; first compound 10 µM
  relative viability: 0.297
[4]; first compound 31.62 µM
  relative viability: 0.473
[4]; first compound 100 µM
  relative viability: 0.407

Source: the supplement of paper PMC10307832
